Data reported in ChEMBL document CHEMBL3885881, “DrugMatrix”.

Species: Rattus norvegicus
Experiment: DrugMatrix - Regimen: Daily Repeat
Format: toxicity, organism-based, Sprague-Dawley
Set-up: regimen Daily Repeat, gender Male, age 6-8 weeks
Settings: in vivo, po, route oral GAVAGE, vehicle .5 % CMC; for ABSOLUTE BASOPHIL / ABSOLUTE EOSINOPHIL / ABSOLUTE LYMPHOCYTE / ABSOLUTE MONOCYTE / ABSOLUTE SEGMENTED NEUTROPHIL / BASOPHIL / EOSINOPHIL / ERYTHROCYTE COUNT / HEMATOCRIT / HEMOGLOBIN / LEUKOCYTE COUNT / LYMPHOCYTE / MEAN CORPUSCULAR HEMOGLOBIN / MEAN CORPUSCULAR HEMOGLOBIN CONCENTRATION / MEAN CORPUSCULAR VOLUME / MONOCYTE / NEUTROPHIL / NUCLEATED RED BLOOD CELLS / PLATELET COUNT: tissue Blood; for ALANINE AMINOTRANSFERASE / ALBUMIN / ALKALINE PHOSPHATASE / ASPARTATE AMINOTRANSFERASE / BLOOD UREA NITROGEN / CARBON DIOXIDE / CHLORIDE / CHOLESTEROL / CREATINE PHOSPHOKINASE / CREATININE / GLUCOSE / LACTATE DEHYDROGENASE / LIPASE / PHOSPHORUS / POTASSIUM / SODIUM / TOTAL BILIRUBIN / TOTAL PROTEIN / URIC ACID: tissue Plasma
[1] = 50 mg/kg, 72 h, dose level Low, time 3 day
[2] = 50 mg/kg, 120 h, dose level Low, time 5 day
[3] = 1500 mg/kg, 72 h, dose level High, time 3 day
[4] = 1500 mg/kg, 120 h, dose level High, time 5 day

Question: Which results are given for `CC[C@H]1OC(=O)[C@H](C)[C@@H](O[C@H]2C[C@@](C)(OC)[C@@H](O)[C@H](C)O2)[C@H](C)[C@@H](O[C@@H]2O[C@H](C)C[C@H](N(C)C)[C@H]2O)[C@](C)(O)C[C@@H](C)C(=O)[C@H](C)[C@@H](O)[C@]1(C)O` [ERYTHROMYCIN]?
Answer: ABSOLUTE BASOPHIL [1]: 0 CELLS/uL; ABSOLUTE EOSINOPHIL [1]: 38.33 CELLS/uL; ABSOLUTE LYMPHOCYTE [1]: 15941.33 CELLS/uL; ABSOLUTE MONOCYTE [1]: 389.67 CELLS/uL; ABSOLUTE SEGMENTED NEUTROPHIL [1]: 1297.33 CELLS/uL; BASOPHIL [1]: 0%; EOSINOPHIL [1]: 0.33%; ERYTHROCYTE COUNT [1]: 5.45 x10E6/uL; HEMATOCRIT [1]: 34.13%; HEMOGLOBIN [1]: 13.53 G/DL; LEUKOCYTE COUNT [1]: 17.67 x10E3/uL; LYMPHOCYTE [1]: 89.67%; MEAN CORPUSCULAR HEMOGLOBIN [1]: 24.9 pg; MEAN CORPUSCULAR HEMOGLOBIN CONCENTRATION [1]: 39.67 G/DL; MEAN CORPUSCULAR VOLUME [1]: 62.7 fL; MONOCYTE [1]: 2%; NEUTROPHIL [1]: 8%; NUCLEATED RED BLOOD CELLS [1]: 0 /100WBC; PLATELET COUNT [1]: 1119.67 x10E3/uL; ALANINE AMINOTRANSFERASE [1]: 49.33 u/L; ALBUMIN [1]: 4.3 G/DL; ALKALINE PHOSPHATASE [1]: 366 u/L; ASPARTATE AMINOTRANSFERASE [1]: 81 u/L; BLOOD UREA NITROGEN [1]: 14.67 mg/dL; CARBON DIOXIDE [1]: 28.33 mmol/L; CHLORIDE [1]: 99.33 MEQ/L; CHOLESTEROL [1]: 80 mg/dL; CREATINE PHOSPHOKINASE [1]: 238.67 u/L; CREATININE [1]: 0.19 mg/dL; GLUCOSE [1]: 154 mg/dL; LACTATE DEHYDROGENASE [1]: 152.67 u/L; LIPASE [1]: 9 u/L; PHOSPHORUS [1]: 12 mg/dL; POTASSIUM [1]: 6.83 MEQ/L; SODIUM [1]: 143.9 MEQ/L; TOTAL BILIRUBIN [1]: 0.27 mg/dL; TOTAL PROTEIN [1]: 6 G/DL; URIC ACID [1]: 1.57 mg/dL; ABSOLUTE BASOPHIL [2]: 0 CELLS/uL; ABSOLUTE EOSINOPHIL [2]: 0 CELLS/uL; ABSOLUTE LYMPHOCYTE [2]: 13393.67 CELLS/uL; ABSOLUTE MONOCYTE [2]: 52.33 CELLS/uL; ABSOLUTE SEGMENTED NEUTROPHIL [2]: 520.67 CELLS/uL; BASOPHIL [2]: 0%; EOSINOPHIL [2]: 0%; ERYTHROCYTE COUNT [2]: 4.88 x10E6/uL; HEMATOCRIT [2]: 31.9%; HEMOGLOBIN [2]: 12.4 G/DL; LEUKOCYTE COUNT [2]: 13.97 x10E3/uL; LYMPHOCYTE [2]: 96%; MEAN CORPUSCULAR HEMOGLOBIN [2]: 25.47 pg; MEAN CORPUSCULAR HEMOGLOBIN CONCENTRATION [2]: 38.87 G/DL; MEAN CORPUSCULAR VOLUME [2]: 65.47 fL; MONOCYTE [2]: 0.33%; NEUTROPHIL [2]: 3.67%; NUCLEATED RED BLOOD CELLS [2]: 1 /100WBC; PLATELET COUNT [2]: 1227.33 x10E3/uL; ALANINE AMINOTRANSFERASE [2]: 45 u/L; ALBUMIN [2]: 4.23 G/DL; ALKALINE PHOSPHATASE [2]: 454.67 u/L; ASPARTATE AMINOTRANSFERASE [2]: 86.33 u/L; BLOOD UREA NITROGEN [2]: 15.33 mg/dL; CARBON DIOXIDE [2]: 25.67 mmol/L; CHLORIDE [2]: 104 MEQ/L; CHOLESTEROL [2]: 39 mg/dL; CREATINE PHOSPHOKINASE [2]: 315.67 u/L; CREATININE [2]: 0.19 mg/dL; GLUCOSE [2]: 170 mg/dL; LACTATE DEHYDROGENASE [2]: 199 u/L; LIPASE [2]: 7.67 u/L; PHOSPHORUS [2]: 10.83 mg/dL; POTASSIUM [2]: 6.66 MEQ/L; SODIUM [2]: 143.43 MEQ/L; TOTAL BILIRUBIN [2]: 0.27 mg/dL; TOTAL PROTEIN [2]: 6.13 G/DL; URIC ACID [2]: 1.5 mg/dL; ABSOLUTE BASOPHIL [3]: 0 CELLS/uL; ABSOLUTE EOSINOPHIL [3]: 0 CELLS/uL; ABSOLUTE LYMPHOCYTE [3]: 15179 CELLS/uL; ABSOLUTE MONOCYTE [3]: 91.33 CELLS/uL; ABSOLUTE SEGMENTED NEUTROPHIL [3]: 1229.67 CELLS/uL; BASOPHIL [3]: 0%; EOSINOPHIL [3]: 0%; ERYTHROCYTE COUNT [3]: 6.59 x10E6/uL; HEMATOCRIT [3]: 42.83%; HEMOGLOBIN [3]: 16.43 G/DL; LEUKOCYTE COUNT [3]: 16.5 x10E3/uL; LYMPHOCYTE [3]: 91%; MEAN CORPUSCULAR HEMOGLOBIN [3]: 24.97 pg; MEAN CORPUSCULAR HEMOGLOBIN CONCENTRATION [3]: 38.43 G/DL; MEAN CORPUSCULAR VOLUME [3]: 64.9 fL; MONOCYTE [3]: 0.67%; NEUTROPHIL [3]: 8.33%; NUCLEATED RED BLOOD CELLS [3]: 0 /100WBC; PLATELET COUNT [3]: 1070 x10E3/uL; ALANINE AMINOTRANSFERASE [3]: 65.33 u/L; ALBUMIN [3]: 4.03 G/DL; ALKALINE PHOSPHATASE [3]: 390 u/L; ASPARTATE AMINOTRANSFERASE [3]: 86.33 u/L; BLOOD UREA NITROGEN [3]: 9.33 mg/dL; CARBON DIOXIDE [3]: 34 mmol/L; CHLORIDE [3]: 100 MEQ/L; CHOLESTEROL [3]: 106.33 mg/dL; CREATINE PHOSPHOKINASE [3]: 328 u/L; CREATININE [3]: 0.16 mg/dL; GLUCOSE [3]: 137.67 mg/dL; LACTATE DEHYDROGENASE [3]: 131 u/L; LIPASE [3]: 9 u/L; PHOSPHORUS [3]: 12.3 mg/dL; POTASSIUM [3]: 6.72 MEQ/L; SODIUM [3]: 144.47 MEQ/L; TOTAL BILIRUBIN [3]: 0.1 mg/dL; TOTAL PROTEIN [3]: 6.17 G/DL; URIC ACID [3]: 2.13 mg/dL; ABSOLUTE BASOPHIL [4]: 0 CELLS/uL; ABSOLUTE EOSINOPHIL [4]: 0 CELLS/uL; ABSOLUTE LYMPHOCYTE [4]: 14587.33 CELLS/uL; ABSOLUTE MONOCYTE [4]: 796.67 CELLS/uL; ABSOLUTE SEGMENTED NEUTROPHIL [4]: 1949.33 CELLS/uL; BASOPHIL [4]: 0%; EOSINOPHIL [4]: 0%; ERYTHROCYTE COUNT [4]: 6.53 x10E6/uL; HEMATOCRIT [4]: 39.67%; HEMOGLOBIN [4]: 15.9 G/DL; LEUKOCYTE COUNT [4]: 17.33 x10E3/uL; LYMPHOCYTE [4]: 84.67%; MEAN CORPUSCULAR HEMOGLOBIN [4]: 24.4 pg; MEAN CORPUSCULAR HEMOGLOBIN CONCENTRATION [4]: 40.13 G/DL; MEAN CORPUSCULAR VOLUME [4]: 60.83 fL; MONOCYTE [4]: 4.33%; NEUTROPHIL [4]: 11%; NUCLEATED RED BLOOD CELLS [4]: 0 /100WBC; PLATELET COUNT [4]: 1382.33 x10E3/uL; ALANINE AMINOTRANSFERASE [4]: 67 u/L; ALBUMIN [4]: 3.7 G/DL; ALKALINE PHOSPHATASE [4]: 311.67 u/L; ASPARTATE AMINOTRANSFERASE [4]: 107.33 u/L; BLOOD UREA NITROGEN [4]: 13.67 mg/dL; CARBON DIOXIDE [4]: 29 mmol/L; CHLORIDE [4]: 100 MEQ/L; CHOLESTEROL [4]: 107.67 mg/dL; CREATINE PHOSPHOKINASE [4]: 532.67 u/L; CREATININE [4]: 0.21 mg/dL; GLUCOSE [4]: 130.33 mg/dL; LACTATE DEHYDROGENASE [4]: 259.67 u/L; LIPASE [4]: 9.33 u/L; PHOSPHORUS [4]: 9.97 mg/dL; POTASSIUM [4]: 9.14 MEQ/L; SODIUM [4]: 141.8 MEQ/L; TOTAL BILIRUBIN [4]: 0.1 mg/dL; TOTAL PROTEIN [4]: 6.13 G/DL; URIC ACID [4]: 1.27 mg/dL
